Results reported in patent US20070196886A1 (priority 2004, published 2007).
Like-named read-outs stand apart in the source and are kept apart here.

Experiments:
RNAP holoenzyme = RNAP holoenzyme (Escherichia coli, UniProt P0A8T7+P0A8V2); test: Electrophoretic mobility shift assays (open-complex formation); type: biochemical; conditions: MccJ25 at 1, 10, or 100 μM; lacUV5 promoter
Protocol: Following 15 min at 37° C., 0.5 μl 1 mg/ml heparin was added (to disrupt non-specific complexes), and, following a further 2 min at 37° C., reaction mixtures were applied to 5% polyacrylamide slab gels (30:1 acrylamide/bisacrylamide; 6×9×0.1 cm) and electrophoresed in 90 mM Tris-borate (pH 8.0) and 0.2 mM EDTA (20 V/cm; 30 min at 37° C.) and analyzed using a fluorescence scanner (Storm 860; Molecular Dynamics)

[1] = biological target: T1, halted transcription elongation complex containing 12 nt of RNA (TEC12) (Escherichia coli, UniProt P0A8T7+P0A8V2); test: Transcription experiment starting with halted elongation complex (TEC12); type: biochemical; conditions: 0, 1, 10, or 100 μM MccJ25; compared with open-complex experiments
T1 construct: made in house
Protocol: TEC12 was prepared by reaction for 5 min at 37° C. with 0.5 mM ApA, and 12.5 μM each of [α-^32P]UTP, ATP, and GTP.

[2] = biological target: T2, [Ile931]β′ RNAP holoenzyme (Escherichia coli, UniProt P0A8T7+P0A8V2, T931I); test: Transcription assays with RNAP derivative bearing Thr931→Ile substitution in β′; type: biochemical
T2 construct: [Ile931]β′ RNAP core and holoenzyme were prepared from strain 397c; hexahistidine (C); made in house; host or cells: E. coli strain 397c (rpoC^ts397) transformed with a pRL663 derivative
Protocol: Following 15 min at 37° C., 0.5 μl 1 mg/ml heparin was added, and, following a further 2 min at 37° C., RNA synthesis was initiated by addition of 2 μl 5 mM ApA and 125 μM (or 250 μM, 500 μM, and 1 mM) each of [α-^32P]UTP (0.6 Bq/fmol), ATP, CTP, GTP. Following 5 min at 37° C., reactions were terminated by addition of 10 μl 80% formamide, 10 mM EDTA, 0.04% bromophenol blue, and 0.04% xylene cyanol. Products were heated 10 min at 90° C., resolved by urea-PAGE (Sambrook and Russel, (2001)), and quantified using a storage-phosphor scanner (Storm 860; Molecular Dynamics). Identities of tri- and tetranucleotide abortive products were defined as in Borowiec and Gralla, (1985) J. Mol. Biol. 184, 587-598). Data were fit to full-competitive, partial-competitive, full-noncompetitive, partial-noncompetitive, full-uncompetitive, partial-uncompetitive, full-mixed, and partial-mixed models of inhibition using the Fit-To-Model feature of the SigmaPlot Enzyme Kinetics Module (SPSS).

[3] = test system: Strain DH5α transformed with pRL663 or a pRL663 derivative
bacterial RNAP = conditions: unpublished data

With Microcin J25 [MccJ25] the “effect on formation of open complex” value (RNAP holoenzyme) was “no effect”, the “inhibition of formation of full-length product starting with halted elongation complex” value [1] was “equivalent results” and the “inhibition upon substitution of residue 931 of the RNAP β′ subunit” value [2] was “overcome completely”. The “increase in MBC” value ([3]; 18 of 22 MccJ25-resistant mutants from random mutagenesis) was no less than 50 fold, the “increase in MBC” value ([3]; all 22 MccJ25-resistant mutants from random mutagenesis) was no less than 5 fold and the MBC ([3]; no substitution (wild-type β′), 2 h at 37° C.) was 0 µg/mL. For the same substance, the MBC ([3]; rpoB 543 Ala→Leu, 549 Asp→Tyr, multiple-substitution mutant) was 50 µg/mL, the MBC ([3]; rpoB 543 Ala→Pro, 546 Glu→Gly, multiple-substitution mutant) was 50 µg/mL and the MBC ([3]; rpoB 544 Gly→Asp, saturation mutagenesis) was 50 µg/mL. For the same substance, the MBC ([3]; rpoB 545 Phe→Leu, 546 Glu→Asp, multiple-substitution mutant) was 50 µg/mL, the MBC ([3]; rpoB 545 Phe→Ser, saturation mutagenesis) was 50 µg/mL and the MBC ([3]; rpoB 548 Arg→Gln, saturation mutagenesis) was 50 µg/mL. The MBC ([3]; rpoB 549 Asp→His, saturation mutagenesis) was 50 µg/mL, the MBC ([3]; rpoC 428 Thr→Asn, saturation mutagenesis) was 500 µg/mL and the MBC ([3]; rpoC 428 Thr→Ile, saturation mutagenesis) was 500 µg/mL. For the same substance, the MBC ([3]; rpoC 429 Leu→Gln, saturation mutagenesis) was 500 µg/mL, the MBC ([3]; rpoC 430 His→Tyr, saturation mutagenesis) was 500 µg/mL and the MBC ([3]; rpoC 493 Pro→Thr, 498 Pro→Thr, multiple-substitution mutant) was 100 µg/mL. The MBC ([3]; rpoC 498 Pro→Gln, saturation mutagenesis) was 1000 µg/mL, the MBC ([3]; rpoC 498 Pro→Leu, saturation mutagenesis) was 1000 µg/mL and the MBC ([3]; rpoC 503 Ser→Pro, saturation mutagenesis) was 500 µg/mL. The MBC ([3]; rpoC 503 Ser→Tyr, saturation mutagenesis) was 500 µg/mL, the MBC ([3]; rpoC 504 Gln→Arg, saturation mutagenesis) was 500 µg/mL and the MBC ([3]; rpoC 504 Gln→Glu, saturation mutagenesis) was 500 µg/mL. It also gave an MBC ([3]; rpoC 508 Leu→Val, saturation mutagenesis) of 50 µg/mL, an MBC ([3]; rpoC 680 Asn→Lys, saturation mutagenesis) of 500 µg/mL and an MBC ([3]; rpoC 684 Asp→Ala, saturation mutagenesis) of 1000 µg/mL. For the same substance, the MBC ([3]; rpoC 684 Asp→Glu, saturation mutagenesis) was 500 µg/mL, the MBC ([3]; rpoC 684 Asp→Tyr, saturation mutagenesis) was 500 µg/mL and the MBC ([3]; rpoC 684 Asp→Val, saturation mutagenesis) was 500 µg/mL. For the same substance, the MBC ([3]; rpoC 732 Gly→Asp, saturation mutagenesis) was 100 µg/mL, the MBC ([3]; rpoC 732 Gly→Asp, 733 Ser→Ala, multiple-substitution mutant) was 100 µg/mL and the MBC ([3]; rpoC 732 Gly→Asp, Gly→Thr, multiple-substitution mutant) was 500 µg/mL. It also gave an MBC ([3]; rpoC 733 Ser→Phe, saturation mutagenesis) of 100 µg/mL, an MBC ([3]; rpoC 733 Ser→Tyr, saturation mutagenesis) of 100 µg/mL and an MBC ([3]; rpoC 733 Ser→Val, saturation mutagenesis) of 500 µg/mL. For the same substance, the MBC ([3]; rpoC 733 Ser→Val, 734 Ala→Gly, multiple-substitution mutant) was 100 µg/mL, the MBC ([3]; rpoC 735 Ala→Δ, saturation mutagenesis) was 1000 µg/mL and the MBC ([3]; rpoC 736 Gln→Pro, saturation mutagenesis) was 500 µg/mL. The MBC ([3]; rpoC 738 Arg→Leu, saturation mutagenesis) was 50 µg/mL, the MBC ([3]; rpoC 744 Arg→His, saturation mutagenesis) was 50 µg/mL and the MBC ([3]; rpoC 744 Arg→Pro, saturation mutagenesis) was 50 µg/mL. The MBC ([3]; rpoC 748 Ala→Pro, saturation mutagenesis) was 100 µg/mL, the MBC ([3]; rpoC 775 Ser→Cys, saturation mutagenesis) was 500 µg/mL and the MBC ([3]; rpoC 776 Thr→Ile, saturation mutagenesis) was 500 µg/mL. The MBC ([3]; rpoC 777 His→Pro, saturation mutagenesis) was 500 µg/mL, the MBC ([3]; rpoC 777 His→Ser, 778 Gly→Ala, multiple-substitution mutant) was 500 µg/mL and the MBC ([3]; rpoC 777 His→Tyr, saturation mutagenesis) was 1000 µg/mL. For the same substance, the MBC ([3]; rpoC 779 Ala→Gly, saturation mutagenesis) was 500 µg/mL, the MBC ([3]; rpoC 779 Ala→Pro, saturation mutagenesis) was 500 µg/mL and the MBC ([3]; rpoC 779 Ala→Thr, saturation mutagenesis) was 1000 µg/mL. It also gave an MBC ([3]; rpoC 780 Arg→Cys, saturation mutagenesis) of 1000 µg/mL, an MBC ([3]; rpoC 782 Gly→Ala, saturation mutagenesis) of 1000 µg/mL and an MBC ([3]; rpoC 783 Leu→Pro, saturation mutagenesis) of 100 µg/mL. It also gave an MBC ([3]; rpoC 784 Ala→Glu, saturation mutagenesis) of 500 µg/mL, an MBC ([3]; rpoC 785 Asp→Gly, saturation mutagenesis) of 500 µg/mL and an MBC ([3]; rpoC 786 Thr→Ala, saturation mutagenesis) of 500 µg/mL. It also gave an MBC ([3]; rpoC 786 Thr→Ile, saturation mutagenesis) of 500 µg/mL, an MBC ([3]; rpoC 788 Leu→Met, saturation mutagenesis) of 1000 µg/mL and an MBC ([3]; rpoC 789 Lys→Arg, saturation mutagenesis) of 500 µg/mL. It also gave an MBC ([3]; rpoC 789 Lys→Asn, saturation mutagenesis) of 1000 µg/mL, an MBC ([3]; rpoC 789 Lys→Gln, saturation mutagenesis) of 1000 µg/mL and an MBC ([3]; rpoC 790 Thr→Ala, saturation mutagenesis) of 1000 µg/mL. The MBC ([3]; rpoC 790 Thr→Asn, saturation mutagenesis) was 500 µg/mL, the MBC ([3]; rpoC 790 Thr→Ile, saturation mutagenesis) was 1000 µg/mL and the MBC ([3]; rpoC 790 Thr→Ser, saturation mutagenesis) was 500 µg/mL. It also gave an MBC ([3]; rpoC 922 Cys→Tyr, saturation mutagenesis) of 500 µg/mL, an MBC ([3]; rpoC 926 Pro→Ser, saturation mutagenesis) of 500 µg/mL and an MBC ([3]; rpoC 927 Gly→Cys, saturation mutagenesis) of 1000 µg/mL. The MBC ([3]; rpoC 927 Gly→Ser, saturation mutagenesis) was 1000 µg/mL, the MBC ([3]; rpoC 930 Leu→Met, saturation mutagenesis) was 1000 µg/mL and the MBC ([3]; rpoC 931 Thr→Ala, saturation mutagenesis) was 1000 µg/mL. It also gave an MBC ([3]; rpoC 931 Thr→Ile, saturation mutagenesis) of 1000 µg/mL, an MBC ([3]; rpoC 932 Met→Ile, saturation mutagenesis) of 1000 µg/mL and an MBC ([3]; rpoC 933 Arg→Cys, saturation mutagenesis) of 1000 µg/mL. The MBC ([3]; rpoC 1136 Gly→Ala, saturation mutagenesis) was 500 µg/mL, the MBC ([3]; rpoC 1136 Gly→Cys, saturation mutagenesis) was 1000 µg/mL and the MBC ([3]; rpoC 1137 Gly→Ala, saturation mutagenesis) was 500 µg/mL. It also gave an MBC ([3]; rpoC 1137 Gly→Arg, saturation mutagenesis) of 1000 µg/mL, an MBC ([3]; rpoC 1240 Val→Glu, saturation mutagenesis) of 500 µg/mL and an MBC ([3]; rpoC 1241 Tyr→Cys, saturation mutagenesis) of 100 µg/mL. For the same substance, the MBC ([3]; rpoC 1241 Tyr→His, saturation mutagenesis) was 100 µg/mL, the MBC ([3]; rpoC 1241 Tyr→Ser, saturation mutagenesis) was 100 µg/mL and the MBC ([3]; rpoC 1244 Gln→Glu, saturation mutagenesis) was 100 µg/mL. For the same substance, the MBC ([3]; rpoC 1244 Gln→Leu, saturation mutagenesis) was 500 µg/mL, the MBC ([3]; rpoC 1244 Gln→Pro, saturation mutagenesis) was 100 µg/mL and the MBC ([3]; rpoC 1247 Lys→Gln, saturation mutagenesis) was 100 µg/mL. For the same substance, the MBC ([3]; rpoC 1247 Lys→Glu, saturation mutagenesis) was 100 µg/mL, the MBC ([3]; rpoC 1248 Ile→Ser, saturation mutagenesis) was 100 µg/mL and the MBC ([3]; β′ 424 Asn→Ser, random mutagenesis, single mutant constructed using site-directed mutagenesis) was 100 µg/mL. The MBC ([3]; β′ 428 Thr→Ile, random mutagenesis) was 500 µg/mL, the MBC ([3]; β′ 430 His→Leu, random mutagenesis) was 500 µg/mL and the MBC ([3]; β′ 464 Asp→Gly, random mutagenesis) was 0 µg/mL. It also gave an MBC ([3]; β′ 469 His→Arg, random mutagenesis) of 0 µg/mL, an MBC ([3]; β′ 504 Gln→Arg, random mutagenesis) of 500 µg/mL and an MBC ([3]; β′ 733 Ser→Phe, random mutagenesis) of 500 µg/mL. For the same substance, the MBC ([3]; β′ 738 Arg→Leu, random mutagenesis) was 0 µg/mL, the MBC ([3]; β′ 776 Thr→Ile, random mutagenesis) was 500 µg/mL and the MBC ([3]; β′ 779 Ala→Thr, random mutagenesis) was 1000 µg/mL. The MBC ([3]; β′ 780 Arg→Cys, random mutagenesis) was 1000 µg/mL, the MBC ([3]; β′ 782 Gly→Ala, random mutagenesis) was 1000 µg/mL and the MBC ([3]; β′ 785 Asp→Gly, random mutagenesis) was 500 µg/mL. It also gave an MBC ([3]; β′ 786 Thr→Ile, random mutagenesis) of 500 µg/mL, an MBC ([3]; β′ 789 Lys→Arg, random mutagenesis) of 500 µg/mL and an MBC ([3]; β′ 789 Lys→Gln, random mutagenesis) of 1000 µg/mL. It also gave an MBC ([3]; β′ 869 Cys→Arg, random mutagenesis) of 1000 µg/mL, an MBC ([3]; β′ 933 Arg→Cys, random mutagenesis) of 1000 µg/mL and an MBC ([3]; β′ 1244 Gln→Leu, random mutagenesis) of 500 µg/mL. The cross-resistance with rifampicin (bacterial RNAP) was “do not exhibit cross-resistance with rifampicin”.
